The target of one experiment is T1, PARP-1 (Homo sapiens, UniProt P09874).
T1 construct: purchased Trevigen
The experiment is described as follows: NAD+ quantitation (fluorescence) assay, determination of IC50 values for PARP inhibitors. Type of experiment: biochemical. Here is the method:
This assay was also applied to determine the IC50 values of the known PARP inhibitors. For these determinations, the inhibitors, at a variety of concentrations, were added to a 96-well plate containing NAD+ and nicked DNA. PARP-1 was then added, and the reaction was allowed to proceed for 15 min. At this point acetophenone/KOH was added, which serves to both quench the PARP-1 enzymatic activity and to begin the conversion of any remaining NAD+ to the fluorophore. After 10 min at 4° C. in the presence of acetophenone/KOH, a solution of formic acid was added and the mixture was incubated in a 110° C. oven for 5 minutes.
In addition, only very low levels of NAD+ were used in this assay (100 nM). […] However, NAD+ concentrations up to 100 μM can also be used, if one desires a direct correlation with other assay methods that typically use micromolar amounts of NAD+ substrate.
The reaction was initiated by adding 10 μL of PARP at a concentration of 10 μg/mL (in PARP assay buffer), bringing the final concentration to 2 μg/mL PARP, 10 μg/mL DNA, 100 nM NAD+ with varying concentrations of inhibitors in a total volume of 50 μL. The plate was incubated for 15 min at room temperature and the amount of NAD+ was then determined by the fluorescence method as described above for the calibration curve. The average value of control wells containing only NAD+ was set as 0% PARP activity, while the average value of control wells containing NAD+ and PARP (but no inhibitor) was set as 100% PARP activity. […] All data points in FIG. 8 were determined in quadruplicate.
Graphs were analyzed using Table Curve 2D. NAD+ standard curves were fitted with a least squares linear model and inhibitor curves were fitted with a logistic dose response curve.

In the next experiment the target is PARP (Homo sapiens, UniProt P09874). To be noted: literature values, references in brackets; cited from earlier work.
Sequence of PARP (P09874 whole entry): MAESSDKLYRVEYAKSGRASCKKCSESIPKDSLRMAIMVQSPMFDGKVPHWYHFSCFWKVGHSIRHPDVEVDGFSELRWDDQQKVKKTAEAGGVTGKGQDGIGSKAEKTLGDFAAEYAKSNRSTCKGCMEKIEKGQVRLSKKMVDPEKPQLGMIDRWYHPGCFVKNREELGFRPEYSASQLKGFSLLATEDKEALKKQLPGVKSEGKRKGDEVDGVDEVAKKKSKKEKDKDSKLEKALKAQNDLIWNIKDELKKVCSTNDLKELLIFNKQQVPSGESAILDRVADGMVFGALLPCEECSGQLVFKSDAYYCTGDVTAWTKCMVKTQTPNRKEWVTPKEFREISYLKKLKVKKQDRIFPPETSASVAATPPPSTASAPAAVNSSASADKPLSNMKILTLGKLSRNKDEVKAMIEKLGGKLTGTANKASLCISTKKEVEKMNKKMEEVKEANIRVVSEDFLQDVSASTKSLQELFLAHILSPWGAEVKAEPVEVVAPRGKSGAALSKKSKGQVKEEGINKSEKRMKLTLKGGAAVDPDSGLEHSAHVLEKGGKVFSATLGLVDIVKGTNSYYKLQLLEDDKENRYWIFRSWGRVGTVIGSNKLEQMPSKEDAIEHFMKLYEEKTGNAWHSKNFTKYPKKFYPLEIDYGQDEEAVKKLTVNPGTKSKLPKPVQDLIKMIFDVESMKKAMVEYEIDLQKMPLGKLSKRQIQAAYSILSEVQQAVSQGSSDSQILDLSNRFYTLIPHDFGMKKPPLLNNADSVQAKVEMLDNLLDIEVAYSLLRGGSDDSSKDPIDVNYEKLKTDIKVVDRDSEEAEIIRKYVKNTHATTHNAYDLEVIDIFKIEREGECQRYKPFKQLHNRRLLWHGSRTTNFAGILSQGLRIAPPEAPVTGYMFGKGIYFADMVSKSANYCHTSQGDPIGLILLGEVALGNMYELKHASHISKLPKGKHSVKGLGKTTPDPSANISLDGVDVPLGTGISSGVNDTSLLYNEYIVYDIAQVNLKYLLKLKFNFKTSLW
Setting [1] is: 100 nM NAD+, 2 μg/mL PARP, 10 μg/mL DNA, 15 min at room temperature, 96-well plate, read-out: IC50 value.

The structures appear in SMILES notation. Read-outs that look alike come from different tables or passages of the source.

T1 sequence (P09874 whole entry): as above

Turning to `O=c1[nH]c2ccccc2c2ccccc12` [6(5H)-phenanthridinons, 6(5H)-phenanthridinone], the IC50 at PARP-1 (setting [1]) turned out to be 305 nM. Regarding `NC(=O)c1ccccc1` [benzamide], the figures for the 50% inhibitory concentration (IC50) at PARP-1 (setting [1]) and on PARP were 1440 nM and 1300 nM, respectively.

At PARP-1, `O=C1NCCc2c(OCCCCN3CCCCC3)cccc21` [DPQ, 3,4-dihydro-5-[4-(1-piperidinyl)butoxy]-1 (2B)-isoquinolinone] yielded an IC50 of 37 nM.

Source of the values: US20070078100A1, “Methods of detecting poly(adp-ribose) polymerase and other nad+ utilizing enzymes” (THE BOARD OF TRUSTEES OF THE UNIVERSITY OF ILLINOI, priority 2003, published 2007).
